Measurements reported in PubChem BioAssay (NCI).
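These data come from cells grown in 96-well plates and exposed to compound for 48 hours at five concentrations. GI50: concentration for 50% inhibition of growth. TGI: concentration producing complete growth inhibition.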

What was measured:
Test in all cases: NCI tumour cell line growth inhibition, 48 h
[1] = tested on: 786-0 renal
[2] = tested on: A498 renal
[3] = tested on: A549 NSCLC
[4] = tested on: ACHN renal
[5] = tested on: BT-549 breast
[6] = tested on: CAKI-1 renal
[7] = tested on: CCRF-CEM leukemia
[8] = tested on: COLO 205 colon
[9] = tested on: DU-145 prostate
[10] = tested on: EKVX NSCLC
[11] = tested on: HCC-2998 colon
[12] = tested on: HCT-116 colon
[13] = tested on: HCT-15 colon
[14] = tested on: HOP-62 NSCLC
[15] = tested on: HOP-92 NSCLC
[16] = tested on: HS 578T breast
[17] = tested on: HT29 colon
[18] = tested on: IGROV1 ovarian
[19] = tested on: KM12 colon
[20] = tested on: LOX IMVI melanoma
[21] = tested on: M14 melanoma
[22] = tested on: MALME-3M melanoma
[23] = tested on: MCF7 breast
[24] = tested on: MDA-MB-231 breast
[25] = tested on: MDA-MB-435
[26] = tested on: NCI-H226 lung
[27] = tested on: NCI-H460 lung
[28] = tested on: NCI-H522 lung
[29] = tested on: NCI/ADR-RES ovarian
[30] = tested on: OVCAR-3 ovarian
[31] = tested on: OVCAR-4 ovarian
[32] = tested on: OVCAR-5 ovarian
[33] = tested on: OVCAR-8 ovarian
[34] = tested on: PC-3 prostate
[35] = tested on: RPMI-8226 leukemia
[36] = tested on: RXF 393 renal
[37] = tested on: SF-268 CNS
[38] = tested on: SF-295 CNS
[39] = tested on: SF-539 CNS
[40] = tested on: SK-MEL-2 melanoma
[41] = tested on: SK-MEL-28 melanoma
[42] = tested on: SK-MEL-5 melanoma
[43] = tested on: SK-OV-3 ovarian
[44] = tested on: SN12C renal
[45] = tested on: SNB-19 CNS
[46] = tested on: SNB-75 CNS
[47] = tested on: SR leukemia
[48] = tested on: T-47D breast
[49] = tested on: TK-10 renal
[50] = tested on: U251 CNS
[51] = tested on: UACC-257 melanoma
[52] = tested on: UACC-62 melanoma
[53] = tested on: UO-31 renal
[54] = tested on: HL-60(TB) leukemia
[55] = tested on: K-562 leukemia
[56] = tested on: MOLT-4 leukemia
[57] = tested on: SW-620 colon

CC(C)(O)c1cncc(-c2ccc3ncnc(N4CCc5cc(F)c(Cl)cc54)c3c2)c1
GI50 [1]: 0.722 µM | TGI [1]: 75.4 µM | GI50 [2]: 0.197 µM | TGI [2]: 1.17 µM | GI50 [3]: 0.773 µM | TGI [3]: > 100 µM | GI50 [4]: 0.572 µM | TGI [4]: > 100 µM | GI50 [5]: 1.22 µM | TGI [5]: 8.89 µM | GI50 [6]: 0.388 µM | TGI [6]: > 100 µM | GI50 [7]: 2.32 µM | TGI [7]: > 100 µM | GI50 [8]: 3.52 µM | TGI [8]: > 100 µM | GI50 [9]: 1.49 µM | TGI [9]: > 100 µM | GI50 [10]: 0.52 µM | TGI [10]: 9.12 µM | GI50 [11]: 2.36 µM | TGI [11]: > 100 µM | GI50 [12]: 2.35 µM | TGI [12]: > 100 µM | GI50 [13]: 1.11 µM | TGI [13]: > 100 µM | GI50 [14]: 1.19 µM | TGI [14]: > 100 µM | GI50 [15]: 0.151 µM | TGI [15]: 0.827 µM | GI50 [16]: 0.754 µM | TGI [16]: 11.7 µM | GI50 [17]: 0.908 µM | TGI [17]: > 100 µM | GI50 [18]: 0.235 µM | TGI [18]: 1.3 µM | GI50 [19]: 5.86 µM | TGI [19]: > 100 µM | TGI [20]: 65.1 µM | GI50 [21]: 4.89 µM | TGI [21]: > 100 µM | GI50 [22]: 1.52 µM | TGI [22]: > 100 µM | GI50 [23]: 0.349 µM | TGI [23]: > 100 µM | GI50 [24]: 1.5 µM | TGI [24]: > 100 µM | GI50 [25]: 2.63 µM | TGI [25]: > 100 µM | GI50 [26]: 3.46 µM | TGI [26]: > 100 µM | GI50 [27]: 1.33 µM | TGI [27]: > 100 µM | GI50 [28]: 1.87 µM | TGI [28]: 85.2 µM | GI50 [29]: 1.59 µM | TGI [29]: > 100 µM | GI50 [30]: 2.27 µM | TGI [30]: > 100 µM | GI50 [31]: 1.35 µM | TGI [31]: > 100 µM | GI50 [32]: 1.17 µM | TGI [32]: > 100 µM | GI50 [33]: 2.59 µM | TGI [33]: > 100 µM | GI50 [34]: 0.775 µM | TGI [34]: > 100 µM | GI50 [35]: 1.99 µM | TGI [35]: > 100 µM | GI50 [36]: 0.432 µM | TGI [36]: 3.07 µM | GI50 [37]: 3.22 µM | TGI [37]: > 100 µM | GI50 [38]: 1.14 µM | TGI [38]: 23.1 µM | GI50 [39]: 1.96 µM | TGI [39]: 84.5 µM | GI50 [40]: 4.89 µM | TGI [40]: 66.6 µM | GI50 [41]: 2.98 µM | TGI [41]: > 100 µM | GI50 [42]: 2.94 µM | TGI [42]: > 100 µM | GI50 [43]: 0.649 µM | TGI [43]: 12.2 µM | GI50 [44]: 0.749 µM | TGI [44]: > 100 µM | GI50 [45]: 2.51 µM | TGI [45]: > 100 µM | GI50 [46]: 0.407 µM | TGI [46]: 15.2 µM | GI50 [47]: 1.52 µM | TGI [47]: > 100 µM | GI50 [48]: 0.236 µM | TGI [48]: 4.08 µM | GI50 [49]: 0.417 µM | TGI [49]: > 100 µM | GI50 [50]: 6.75 µM | TGI [50]: > 100 µM | GI50 [51]: 3.96 µM | TGI [51]: > 100 µM | GI50 [52]: 0.543 µM | TGI [52]: > 100 µM | GI50 [53]: 0.184 µM | TGI [53]: 74.2 µM

CNC(=O)c1cc(-c2ccc(NC(=O)Nc3ccc(N4CCN(C)CC4)c(C(F)(F)F)c3)cc2)nc2cccnc12
GI50 [1]: 1.81 µM | TGI [1]: 3.52 µM | GI50 [2]: > 100 µM | TGI [2]: > 100 µM | GI50 [3]: 10.9 µM | TGI [3]: 24.3 µM | GI50 [4]: 15.5 µM | TGI [4]: 28.9 µM | GI50 [5]: 16.5 µM | TGI [5]: 35.3 µM | GI50 [6]: 16.1 µM | TGI [6]: 29.6 µM | GI50 [7]: 3.16 µM | TGI [7]: 74.2 µM | GI50 [8]: 16.8 µM | TGI [8]: 32.8 µM | GI50 [9]: 17.6 µM | TGI [9]: 35.6 µM | GI50 [10]: 17.9 µM | TGI [10]: 33.9 µM | GI50 [11]: 18 µM | TGI [11]: 34.6 µM | GI50 [12]: 4.09 µM | TGI [12]: 75.6 µM | GI50 [13]: 2.07 µM | TGI [13]: 4.33 µM | GI50 [54]: 16.1 µM | TGI [54]: 38.7 µM | GI50 [14]: 16.4 µM | TGI [14]: 32.2 µM | GI50 [15]: 6.54 µM | TGI [15]: > 100 µM | GI50 [16]: 15 µM | TGI [16]: 38.9 µM | GI50 [17]: 1.92 µM | TGI [17]: 4.19 µM | GI50 [18]: 17.7 µM | TGI [18]: 36.6 µM | GI50 [55]: 2.12 µM | TGI [55]: 5.35 µM | GI50 [19]: 17.4 µM | TGI [19]: 43.3 µM | GI50 [20]: 0.656 µM | TGI [20]: 24.5 µM | GI50 [21]: 1.79 µM | TGI [21]: 3.71 µM | GI50 [22]: 1.68 µM | TGI [22]: 3.21 µM | GI50 [23]: 1.67 µM | TGI [23]: 3.45 µM | GI50 [24]: 17.5 µM | TGI [24]: 38.1 µM | GI50 [25]: 1.75 µM | TGI [25]: 3.27 µM | GI50 [56]: 2.79 µM | TGI [56]: 14.9 µM | GI50 [26]: 18 µM | TGI [26]: 39.7 µM | GI50 [27]: 3.19 µM | TGI [27]: 10.2 µM | GI50 [28]: 16.5 µM | TGI [28]: 31.1 µM | GI50 [29]: 14.2 µM | TGI [29]: 45.4 µM | GI50 [30]: 9.59 µM | TGI [30]: 25.8 µM | GI50 [31]: 15.7 µM | TGI [31]: 31.6 µM | GI50 [32]: 15.6 µM | TGI [32]: 29 µM | GI50 [33]: 17.4 µM | TGI [33]: 35.4 µM | GI50 [34]: 15.1 µM | TGI [34]: 30.1 µM | GI50 [35]: 3.85 µM | TGI [35]: 25 µM | GI50 [36]: 3.38 µM | TGI [36]: 15 µM | GI50 [37]: 17.5 µM | TGI [37]: 39.2 µM | GI50 [38]: 18 µM | TGI [38]: 36.9 µM | GI50 [39]: 13.6 µM | TGI [39]: 26.5 µM | GI50 [40]: > 100 µM | TGI [40]: > 100 µM | GI50 [41]: 1.67 µM | TGI [41]: 3.11 µM | GI50 [42]: 17.5 µM | TGI [42]: 31.7 µM | GI50 [43]: 18.5 µM | TGI [43]: 34.7 µM | GI50 [44]: 16.7 µM | TGI [44]: 34.7 µM | GI50 [45]: 16.9 µM | TGI [45]: 33.2 µM | GI50 [46]: 14.9 µM | TGI [46]: 28.4 µM | GI50 [47]: 9.97 µM | TGI [47]: 44.6 µM | GI50 [57]: 2.11 µM | TGI [57]: 4.62 µM | GI50 [48]: 17 µM | TGI [48]: 43.4 µM | GI50 [49]: 18.5 µM | TGI [49]: 33.3 µM | GI50 [50]: 3.43 µM | TGI [50]: 14.7 µM | GI50 [51]: 15.3 µM | TGI [51]: 28.8 µM | GI50 [52]: 18.4 µM | TGI [52]: 33.9 µM | GI50 [53]: 15.3 µM | TGI [53]: 29.2 µM
